Test results as given in US11802111B2, “Cyclobutyl amide monoacylglycerol lipase modulators” (Janssen Pharmaceutica NV, priority 2020, dated 2023).

Biological target: human MGL from HeLa cells (Homo sapiens (Human), UniProt Q99685)
Assay: MGL in vitro activity assay ([glycerol-1,3-3H]-oleoyl glycerol hydrolysis, activated carbon filtration)
Format: biochemical
Conditions: 300 nM [Glycerol-1,3-3H]-oleoyl glycerol, one hour
Method: The assay used to measure the in vitro activity of MGL is adapted from the assay used for another serine hydrolase (FAAH) described in Wilson et al., 2003 (A high-throughput-compatible assay for determining the activity of fatty acid amide hydrolase. Wilson S J, Lovenberg T W, Barbier A J. Anal Biochem. 2003 Jul. 15; 318(2):270-5). The assay consists of combining endogenously expressed MGL from HeLa cells with test compounds, adding [glycerol-1,3-^3H]-oleyl glycerol, incubating for one hour, and then measuring the amount of cleaved [1,3-^3H]-glycerol that passes through an activated carbon filter. The amount of cleaved, tritiated glycerol passing through the carbon filter is proportional to the activity of the MGL enzyme in a particular well/test condition.
Standard conditions for this assay combine 300 nM [Glycerol-1,3-^3H]-oleoyl glycerol with human MGL from HeLa cells and test compounds for one hour, after which the reaction is filtered through activated carbon and tritium is measured in the flow through. The test compound concentration in screening mode is 10 μM, while the highest compound concentration in IC50 assays is determined empirically. MGL is the predominant hydrolase in HeLa cells/cell homogenates.

Sequence of human MGL from HeLa cells (Q99685 whole entry): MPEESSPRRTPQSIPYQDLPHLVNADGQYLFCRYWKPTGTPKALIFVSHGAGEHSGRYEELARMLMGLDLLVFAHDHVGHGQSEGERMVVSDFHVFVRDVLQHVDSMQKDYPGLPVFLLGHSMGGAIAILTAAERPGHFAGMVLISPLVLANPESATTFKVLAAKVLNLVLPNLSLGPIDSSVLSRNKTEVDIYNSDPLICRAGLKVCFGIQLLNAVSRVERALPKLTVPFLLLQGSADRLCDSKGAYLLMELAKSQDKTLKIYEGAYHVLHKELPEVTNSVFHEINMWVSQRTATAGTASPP

Row | SMILES | IC50 [nM]
1 | Cc1c(C2CCC3(C2)CN(C(=O)[C@H]2C[C@@](C)(O)C2)C3)cccc1C(F)(F)F (mixture of isomers) [Example 7, (rac)-((1s,3s)-3-Hydroxy-3-methylcyclobutyl)(6-(2-methyl-3-(trifluoromethyl)phenyl)-2-azaspiro[3.4]octan-2-yl)methanone] | 10
2 | Cc1cc(C(F)(F)F)ccc1C1CCC2(C1)CN(C(=O)[C@H]1C[C@@](C)(O)C1)C2 (mixture of isomers) [Example 8, (rac)-((1s,3s)-3-Hydroxy-3-methylcyclobutyl)(6-(2-methyl-4-(trifluoromethyl)phenyl)-2-azaspiro[3.4]octan-2-yl)methanone] | 5
3 | Cc1cc(OC(F)(F)F)ccc1C1CCC2(C1)CN(C(=O)[C@H]1C[C@@](C)(O)C1)C2 (mixture of isomers) [Example 9, (rac)-((1s,3s)-3-Hydroxy-3-methylcyclobutyl)(6-(2-methyl-4-(trifluoromethoxy)phenyl)-2-azaspiro[3.4]octan-2-yl)methanonemethanone] | 3.4
4 | Cc1cc(Cl)ccc1C1CCC2(C1)CN(C(=O)[C@H]1C[C@@](C)(O)C1)C2 (mixture of isomers) [Example 10, (rac)-(6-(4-Chloro-2-methylphenyl)-2-azaspiro[3.4]octan-2-yl)((1s,3s)-3-hydroxy-3-methylcyclobutyl)methanone] | 22
5 | Cc1c(Cl)cccc1C1CCC2(C1)CN(C(=O)[C@H]1C[C@@](C)(O)C1)C2 (mixture of isomers) [Example 11, (rac)-(6-(3-Chloro-2-methylphenyl)-2-azaspiro[3.4]octan-2-yl)((1s,3s)-3-hydroxy-3-methylcyclobutyl)methanone] | 37
6 | Cc1cc(C2CCC3(C2)CN(C(=O)[C@H]2C[C@@](C)(O)C2)C3)ccc1C(F)F (mixture of isomers) [Example 12, (rac)-(6-(4-(Difluoromethyl)-3-methylphenyl)-2-azaspiro[3.4]octan-2-yl)((1s,3s)-3-hydroxy-3-methylcyclobutyl)methanone] | 25
7 | COc1cccc(C2CCC3(C2)CN(C(=O)[C@H]2C[C@@](C)(O)C2)C3)c1C (mixture of isomers) [Example 13, (rac)-((1s,3s)-3-Hydroxy-3-methylcyclobutyl)(6-(3-methoxy-2-methylphenyl)-2-azaspiro[3.4]octan-2-yl)methanone] | 159
8 | Cc1ccc(C2CCC3(C2)CN(C(=O)[C@H]2C[C@@](C)(O)C2)C3)c(C)c1 (mixture of isomers) [Example 14, (rac)-(6-(2,4-Dimethylphenyl)-2-azaspiro[3.4]octan-2-yl)((1s,3s)-3-hydroxy-3-methylcyclobutyl)methanone] | 26
9 | CCc1cc(C2CCC3(C2)CN(C(=O)[C@H]2C[C@@](C)(O)C2)C3)ccc1Cl (mixture of isomers) [Example 15, (rac)-(6-(4-Chloro-3-ethylphenyl)-2-azaspiro[3.4]octan-2-yl)((1s,3s)-3-hydroxy-3-methylcyclobutyl)methanone] | 6
10 | C[C@]1(O)C[C@@H](C(=O)N2CC3(CCC(c4ccc5c(c4)CCC5)C3)C2)C1 (mixture of isomers) [Example 16, (rac)-(6-(2,3-Dihydro-1H-inden-5-yl)-2-azaspiro[3.4]octan-2-yl)((1s,3s)-3-hydroxy-3-methylcyclobutyl)methanone] | 10
11 | COc1cc(C2CCC3(C2)CN(C(=O)[C@H]2C[C@@](C)(O)C2)C3)ccc1C (mixture of isomers) [Example 17, (rac)-((1s,3s)-3-Hydroxy-3-methylcyclobutyl)(6-(3-methoxy-4-methylphenyl)-2-azaspiro[3.4]octan-2-yl)methanone] | 46
12 | C[C@]1(O)C[C@@H](C(=O)N2CC3(CCC(c4cccc(C5CC5)c4F)C3)C2)C1 (mixture of isomers) [Example 24, (rac)-(6-(3-Cyclopropyl-2-fluorophenyl)-2-azaspiro[3.4]octan-2-yl)((1s,3s)-3-hydroxy-3-methylcyclobutyl)methanone] | 11
13 | CC(C)(C)c1cccc(C2CCC3(C2)CN(C(=O)[C@H]2C[C@@](C)(O)C2)C3)n1 (mixture of isomers) [Example 29, (rac)-(6-(6-(tert-Butyl)pyridin-2-yl)-2-azaspiro[3.4]octan-2-yl)((1s,3s)-3-hydroxy-3-methylcyclobutyl)methanone] | 7.7
14 | CC(C)c1ccc(C2CCC3(C2)CN(C(=O)[C@H]2C[C@@](C)(O)C2)C3)cc1 (mixture of isomers) [Example 35, (rac)-((1s,3s)-3-Hydroxy-3-methylcyclobutyl)(6-(4-isopropylphenyl)-2-azaspiro[3.4]octan-2-yl)methanone] | 15
15 | CC(C)(C)c1cccc(C2CCC3(CCN(C(=O)[C@H]4C[C@@](C)(O)C4)CC3)C2)c1 (mixture of isomers) [Example 38, (rac)-(2-(3-(tert-Butyl)phenyl)-8-azaspiro[4.5]decan-8-yl)((1s,3s)-3-hydroxy-3-methylcyclobutyl)methanone] | 20
16 | CC(C)(C)c1ccc(C2CCC3(CCN(C(=O)[C@H]4C[C@@](C)(O)C4)CC3)C2)cc1 (mixture of isomers) [Example 39, (rac)-(2-(4-(tert-Butyl)phenyl)-8-azaspiro[4.5]decan-8-yl)((1s,3s)-3-hydroxy-3-methylcyclobutyl)methanone] | 18
17 | C[C@]1(O)C[C@@H](C(=O)N2CC3(CCC(c4cccc(OC(F)(F)F)c4)C3)C2)C1 (mixture of isomers) [Example 40, (rac)-((1s,3s)-3-Hydroxy-3-methylcyclobutyl)(6-(3-(trifluoromethoxy)phenyl)-2-azaspiro[3.4]octan-2-yl)methanone] | 23
18 | CC(C)(C)c1cccc(C2CCC3(C2)CN(C(=O)[C@H]2C[C@@](C)(O)C2)C3)c1 (mixture of isomers) [Example 43, (rac)-(6-(3-(tert-Butyl)phenyl)-2-azaspiro[3.4]octan-2-yl)((1s,3s)-3-hydroxy-3-methylcyclobutyl)methanone] | 6.9
19 | CC(C)c1cccc(C2CCC3(C2)CN(C(=O)[C@H]2C[C@@](C)(O)C2)C3)c1 (mixture of isomers) [Example 46, (rac)-((1s,3s)-3-Hydroxy-3-methylcyclobutyl)(6-(3-isopropylphenyl)-2-azaspiro[3.4]octan-2-yl)methanone] | 13
20 | C[C@]1(O)C[C@@H](C(=O)N2CC3(CCC(c4ccc(C5CC5)cc4)C3)C2)C1 (mixture of isomers) [Example 49, (rac)-(6-(4-Cyclopropylphenyl)-2-azaspiro[3.4]octan-2-yl)((1s,3s)-3-hydroxy-3-methylcyclobutyl)methanone] | 14
21 | C[C@]1(O)C[C@@H](C(=O)N2CC3(CCC(c4ccc(OC(F)(F)F)cc4)C3)C2)C1 (mixture of isomers) [Example 52, (rac)-((1s,3s)-3-Hydroxy-3-methylcyclobutyl)(6-(4-(trifluoromethoxy)phenyl)-2-azaspiro[3.4]octan-2-yl)methanone] | 16
22 | C[C@]1(O)C[C@@H](C(=O)N2CC3(CCC(c4ccc(C(F)(F)F)cc4)C3)C2)C1 (mixture of isomers) [Example 55, (rac)-((1s,3s)-3-Hydroxy-3-methylcyclobutyl)(6-(4-(trifluoromethyl)phenyl)-2-azaspiro[3.4]octan-2-yl)methanone] | 22
23 | C[C@]1(O)C[C@@H](C(=O)N2CC3(CCC(c4cccc(C5CC5)c4)C3)C2)C1 (mixture of isomers) [Example 58, (rac)-(6-(3-Cyclopropylphenyl)-2-azaspiro[3.4]octan-2-yl)((1s,3s)-3-hydroxy-3-methylcyclobutyl)methanone] | 41
24 | C[C@]1(O)C[C@@H](C(=O)N2CC3(CCC(c4cccc(C(F)(F)F)c4)C3)C2)C1 (mixture of isomers) [Example 61, (rac)-((1s,3s)-3-Hydroxy-3-methylcyclobutyl)(6-(3-(trifluoromethyl)phenyl)-2-azaspiro[3.4]octan-2-yl)methanone] | 29
25 | C[C@]1(O)C[C@@H](C(=O)N2CC3(CCC(c4cccc(C5CCC5)c4)C3)C2)C1 (mixture of isomers) [Example 64, (rac)-(6-(3-Cyclobutylphenyl)-2-azaspiro[3.4]octan-2-yl)((1s,3s)-3-hydroxy-3-methylcyclobutyl)methanone] | 14
26 | Cc1ccc(C2CCC3(C2)CN(C(=O)[C@H]2C[C@@](C)(O)C2)C3)cc1C(F)(F)F (mixture of isomers) [Example 65, (rac)-((1s,3s)-3-Hydroxy-3-methylcyclobutyl)(6-(4-methyl-3-(trifluoromethyl)phenyl)-2-azaspiro[3.4]octan-2-yl)methanone] | 11
27 | Cc1cc(C2CCC3(C2)CN(C(=O)[C@H]2C[C@@](C)(O)C2)C3)ccc1OC(F)(F)F (mixture of isomers) [Example 66, (rac)-((1s,3s)-3-Hydroxy-3-methylcyclobutyl)(6-(3-methyl-4-(trifluoromethoxy)phenyl)-2-azaspiro[3.4]octan-2-yl)methanone] | 0.5
28 | Cc1cc(C2CCC3(C2)CN(C(=O)[C@H]2C[C@@](C)(O)C2)C3)ccc1C(F)(F)F (mixture of isomers) [Example 67, (rac)-((1s,3s)-3-Hydroxy-3-methylcyclobutyl)(6-(3-methyl-4-(trifluoromethyl)phenyl)-2-azaspiro[3.4]octan-2-yl)methanone] | 1.7
29 | Cc1cc(C2CCC3(C2)CN(C(=O)[C@H]2C[C@@](C)(O)C2)C3)ccc1Cl (mixture of isomers) [Example 68, (rac)-(6-(4-Chloro-3-methylphenyl)-2-azaspiro[3.4]octan-2-yl)((1s,3s)-3-hydroxy-3-methylcyclobutyl)methanone] | 12
30 | Cc1ccc(C2CCC3(C2)CN(C(=O)[C@H]2C[C@@](C)(O)C2)C3)cc1Cl (mixture of isomers) [Example 71, (rac)-(6-(3-Chloro-4-methylphenyl)-2-azaspiro[3.4]octan-2-yl)((1s,3s)-3-hydroxy-3-methylcyclobutyl)methanone] | 15
